Patent US4864023A, “Pyrido(3,2,1-IJ)-1,3,4-benzoxadiazine derivatives” (priority 1988, dated 1989)
≈ marks a conversion by molar mass, not a printed value. Where two headings read alike, the source gives them in different places.

How the values were obtained:
[1] = tested on: Escherichia coli NIHJ JC-2; assay: in vitro antibacterial activity, standard agar dilution method; format: cell-based; conditions: NIHJJC2, aerobic, read-out: minimum inhibitory concentration (MIC)
[2] = tested on: Staphylococcus aureus FDA 209P JC-1; assay: as above; format: cell-based; conditions: FDA209P, read-out: minimum inhibitory concentration (MIC)
[3] = acute toxicity by oral administration; conditions: mouse, in vivo, po
Excerpt: The acute toxicity of these compounds was examined by oral administration in ICR mice.

[4] = tested on: Peptococcus variabilis ATCC 14955; assay: in vitro antibacterial activity, standard agar dilution method; format: cell-based; conditions: anaerobic, read-out: minimum inhibitory concentration (MIC)
[5] = tested on: Propionibacterium acnes ATCC 11828; assay: as above; format: cell-based; conditions: Cutibacterium acnes, ATCC11828, anaerobic, read-out: minimum inhibitory concentration (MIC)
[6] = tested on: Enterobacter cloacae NR 2946; assay: as above; format: cell-based; conditions: NR2946, aerobic, read-out: minimum inhibitory concentration (MIC)
[7] = tested on: Staphylococcus epidermidis IFO 12993; assay: as above; format: cell-based; conditions: IFO12993, aerobic, read-out: minimum inhibitory concentration (MIC)
[8] = tested on: Alcaligenes faecalis IFO 13111; assay: as above; format: cell-based; conditions: IFO13111, aerobic, read-out: minimum inhibitory concentration (MIC)
[9] = tested on: Pseudomonas aeruginosa NR 2950; assay: as above; format: cell-based; conditions: NR2950, aerobic, read-out: minimum inhibitory concentration (MIC)
[10] = tested on: Bacteroides fragilis NR 2584; assay: as above; format: cell-based; conditions: NR2584, anaerobic, read-out: minimum inhibitory concentration (MIC)
[11] = tested on: Peptostreptococcus anaerobius NR 2743; assay: as above; format: cell-based; conditions: NR2743, anaerobic, read-out: minimum inhibitory concentration (MIC)
[12] = tested on: Pseudomonas stutzeri IFO 12695; assay: as above; format: cell-based; conditions: Stutzerimonas stutzeri, IFO12695, aerobic, read-out: minimum inhibitory concentration (MIC)
[13] = tested on: Bacteroides distasonis NR 2578; assay: as above; format: cell-based; conditions: Parabacteroides distasonis, NR2578, anaerobic, read-out: minimum inhibitory concentration (MIC)
[14] = tested on: Clostridium botulinum NR 26ll; assay: microbe, parasite or virus in culture; format: cell-based; conditions: NR26LL, read-out: minimum inhibitory concentration (MIC)
[15] = tested on: Staphylococcus aureus NR 2855; assay: in vitro antibacterial activity, standard agar dilution method; format: cell-based
[16] = tested on: Bacteroides fragilis NR 2583; assay: as above; format: cell-based; conditions: NR2583, anaerobic, read-out: minimum inhibitory concentration (MIC)
Escherichia coli NR 2630 = assay: as above; format: cell-based; conditions: NR2630; Escherichia coli NR 2630; aerobic; agar dilution; read-out: minimum inhibitory concentration (MIC)
[17] = tested on: Streptococcus pneumoniae 6-001; assay: in vivo therapeutic efficacy, lethal systemic infection in mice; conditions: Streptococcus pneumoniae, 6001, po, 120 h; S. pneumoniae 6-001 i.p. infection, ICR mice, p.o. at time of injection, mortality 5 days; read-out: 50% effective dose (ED50)
Protocol: (§1) The in vivo antibacterial activities of pyrido[3,2,1-ij]-1,3,4-benzoxadiazine derivatives prepared by Example 5, Example 30, Example 65 and Example 66 as mentioned below were tested against lethal infection of Escherichia coli ML4707, Pseudomonas aeruginosa 4au542 and Streptococcus pneumoniae 6-001. ICR mice weighing about 20 g were infected by intraperitoneal injection of a corresponding bacterial suspension. The test compounds were administered orally or subcutaneously at the time of injection. […] The respective 50% effective dose (ED50, mg/kg) which protects 50% of the animals from death caused by infection, is shown in Table 3.

Escherichia coli ML4707 = assay: as above; conditions: Escherichia coli, 120 h, E. coli ML4707 i.p. infection, ICR mice, mortality 5 days, read-out: 50% effective dose (ED50)
Protocol: as §1

[18] = tested on: Bacteroides fragilis NR 2582; assay: in vitro antibacterial activity, standard agar dilution method; format: cell-based; conditions: NR2582, anaerobic, read-out: minimum inhibitory concentration (MIC)
[19] = tested on: Proteus rettgeri ATCC 14505; assay: as above; format: cell-based; conditions: Providencia rettgeri, ATCC14505, aerobic, read-out: minimum inhibitory concentration (MIC)
[20] = tested on: Bacteroides thetaiotaomicron NR 2588; assay: as above; format: cell-based; conditions: NR2588, anaerobic, read-out: minimum inhibitory concentration (MIC)
[21] = tested on: Bordetella bronchiseptica ATCC 4617; assay: as above; format: cell-based; conditions: ATCC4617, aerobic, read-out: minimum inhibitory concentration (MIC)
[22] = tested on: Bacteroides fragilis ATCC 23745; assay: as above; format: cell-based; conditions: ATCC23745, anaerobic, read-out: minimum inhibitory concentration (MIC)
[23] = tested on: Enterobacter aerogenes NR 2945; assay: as above; format: cell-based; conditions: Klebsiella aerogenes, NR2945, aerobic, read-out: minimum inhibitory concentration (MIC)
[24] = tested on: Peptococcus prevotii ATCC 9321; assay: as above; format: cell-based; conditions: Anaerococcus prevotii, ATCC9321, anaerobic, read-out: minimum inhibitory concentration (MIC)
[25] = tested on: Salmonella typhimurium IFO 12529; assay: as above; format: cell-based; conditions: Salmonella enterica, aerobic, read-out: minimum inhibitory concentration (MIC)
[26] = tested on: Bacillus subtilis PCI 219; assay: as above; format: cell-based; conditions: PCI219, aerobic, read-out: minimum inhibitory concentration (MIC)
[27] = tested on: Myoplasma hominis NR 2952; assay: as above; format: cell-based; conditions: read-out: minimum inhibitory concentration (MIC)
[28] = ML4707, po, p.o. at time of injection
[29] = ML4707, sc, s.c. at time of injection

SMILES | MIC [1] [µg/mL] | LD50 [3] [mg/kg] | MIC [4] [µg/mL] | MIC [5] [µg/mL] | MIC [6] [µg/mL] | MIC [7] [µg/mL] | MIC [8] [µg/mL] | MIC [9] [µg/mL] | MIC [10] [µg/mL] | MIC [11] [µg/mL] | MIC [12] [µg/mL] | MIC [13] [µg/mL] | MIC [14] [µg/mL] | MIC [16] [µg/mL] | MIC (Escherichia coli NR 2630) [ng/mL] | ED50 [17] [mg/kg] | ED50 (Escherichia coli ML4707; [28]) [mg/kg] | ED50 (Escherichia coli ML4707; [29]) [mg/kg] | MIC [18] [µg/mL] | MIC [19] [µg/mL] | further results
CN1CCN(c2c(F)cc3c(=O)c(C(=O)O)cn4c3c2OCN4C)CC1 [Example 5, 9-fluoro-3-methyl-10-(4-methyl-1-piperazinyl)-7-oxo-2,3-dihydro-7H-pyrido[3,2,1-ij]-1,3,4-benzoxadiazine-6-carboxylic acid] | 0.025 (≈ 0.069 µM) | > 2000 | 0.78 (≈ 2.15 µM) | 0.78 (≈ 2.15 µM) | 0.025 (≈ 0.069 µM) | 0.39 (≈ 1.08 µM) | 0.39 (≈ 1.08 µM) | 0.78 (≈ 2.15 µM) | 0.78 (≈ 2.15 µM) | 0.39 (≈ 1.08 µM) | 0.025 (≈ 0.069 µM) | 0.78 (≈ 2.15 µM) | 0.1 (≈ 0.276 µM) | 0.39 (≈ 1.08 µM) | 13 (≈ 0.0359 µM) | 10.3 | 0.11 | 0.06 | 0.78 (≈ 2.15 µM) | 0.2 (≈ 0.552 µM) | MIC ([2]; Staphylococcus aureus): 0.39 µg/mL (≈ 1.08 µM); MIC ([15]; NR2855, Staphylococcus aureus NR 2855, aerobic, agar dilution, read-out: minimum inhibitory concentration (MIC)): 0.2 µg/mL (≈ 0.552 µM); MIC [20]: 1.56 µg/mL (≈ 4.31 µM); MIC [21]: 0.2 µg/mL (≈ 0.552 µM); MIC [22]: 0.78 µg/mL (≈ 2.15 µM); MIC [23]: 13 ng/mL (≈ 0.0359 µM); MIC [24]: 1.56 µg/mL (≈ 4.31 µM); MIC [25]: 0.025 µg/mL (≈ 0.069 µM); MIC [26]: 0.05 µg/mL (≈ 0.138 µM); MIC [27]: 0.1 µg/mL (≈ 0.276 µM)
CN1COc2c(N3CCC(N)C3)c(F)cc3c(=O)c(C(=O)O)cn1c23 (stereo not drawn) [Example 30, 10-(3-amino-1-pyrrolidinyl)-9-fluoro-3-methyl-7-oxo-2,3-dihydro-7H-pyrido[3,2,1-ij]-1,3,4-benzoxadiazine-6-carboxylic acid] | 0.013 (≈ 0.0373 µM) | > 2000 | 0.2 (≈ 0.574 µM) | 0.78 (≈ 2.24 µM) | 0.013 (≈ 0.0373 µM) | 0.2 (≈ 0.574 µM) | 1.56 (≈ 4.48 µM) | 0.2 (≈ 0.574 µM) | 0.78 (≈ 2.24 µM) | 0.013 (≈ 0.0373 µM) | 0.0033 (≈ 0.00947 µM) | 0.78 (≈ 2.24 µM) | 0.013 (≈ 0.0373 µM) | 0.1 (≈ 0.287 µM) | 6.5 (≈ 0.0187 µM) | 65.9 | 0.62 | 0.1 | 0.39 (≈ 1.12 µM) | 0.1 (≈ 0.287 µM) | MIC ([2]; Staphylococcus aureus FDA 209P JC-1, aerobic, agar dilution): 0.05 µg/mL (≈ 0.144 µM); MIC ([15]; Staphylococcus aureus, NR2855, read-out: minimum inhibitory concentration (MIC)): 0.39 µg/mL (≈ 1.12 µM); MIC [20]: 0.78 µg/mL (≈ 2.24 µM); MIC [21]: 1.56 µg/mL (≈ 4.48 µM); MIC [22]: 0.2 µg/mL (≈ 0.574 µM); MIC [23]: 3.3 ng/mL (≈ 0.00947 µM); MIC [24]: 0.39 µg/mL (≈ 1.12 µM); MIC [25]: 0.0065 µg/mL (≈ 0.0187 µM); MIC [26]: 0.025 µg/mL (≈ 0.0718 µM); MIC [27]: 0.1 µg/mL (≈ 0.287 µM)
